Measured values from US8158605B2, “Azacytidine analogues and uses thereof” (Mount Sinai School of Medicine, priority 2007, dated 2012).

Columns and labels:
[1] = tested on: 5637; experiment: WST-1 cytotoxicity assay; format: cell-based
Experimental: (§1) Human promyelocytic leukemia cell lines HL60, human histiocytic lymphoma U937, human chronic myelogenous leukemia K562, human acute T cell Jurkat, breast adenocarcinoma MCF-7, urinary bladder carcinoma 5637, prostate carcinoma DU-145 were purchased from American Type Culture Collection. All cell lines except Jurkat were maintained in RPMI 1640 medium (Gibco, Glasgow, UK) supplemented with 10% heat-inactivated fetal calf serum (FCS), 100 U/ml of penicillin, and […] streptomycin, in an atmosphere of 5% CO2 at 37° C. Jurkat cells were cultured in RPMI 1640 medium supplemented with 1.5 g/L sodium bicarbonate, 4.5 g/L glucose, 10 mM sodium pyruvate, and 10% FCS, 100 U/ml of penicillin, and […] streptomycin.
(§2) MCF-7, DU-145, and 5637 cells (1×10^4/ml) were plated and allowed to adhere and spread for 24 hours. […] Cultures were incubated with WST-1 reagent for 1 hour. The production of formazan was measured by a microplate reader (Bio-Tek Instruments, Elx 800) at 450 nm with a reference wavelength of 650 nm. Growth inhibition was determined as compared to untreated cells (%). IC50 values were calculated using CalcuSyn software (Biosoft).

[2] = tested on: DU145; experiment: WST-1 cytotoxicity assay; format: cell-based; conditions: Homo sapiens, DU-145
Experimental: as §1, §2

[3] = tested on: HL60; experiment: WST-1 cytotoxicity assay; format: cell-based; conditions: Homo sapiens, HL-60
Experimental: as §1, §2

[4] = tested on: Jurkat; experiment: WST-1 cytotoxicity assay; format: cell-based; conditions: Homo sapiens
Experimental: as §1, §2

[5] = tested on: K562; experiment: WST-1 cytotoxicity assay; format: cell-based; conditions: Homo sapiens
Experimental: as §1, §2

[6] = tested on: MCF-7; experiment: WST-1 cytotoxicity assay; format: cell-based; conditions: Homo sapiens, MCF7
Experimental: as §1, §2

[7] = tested on: U937; experiment: WST-1 cytotoxicity assay; format: cell-based; conditions: Homo sapiens, U-937
Experimental: as §1, §2

[8] = tested on: U937, HL60 and K562 cells; experiment: Differentiating induction (NBT reduction, benzidine staining); format: cell-based, human; conditions: repeated exposure for 11 (HL60) or 14 (U937, K562) days
Experimental: Cell differentiation was studied in terms of morphology. […] After initial treatment on day 0, cells were exposed to the new portions of drugs on day 4, 7, and 10. The differentiation was evaluated by NBT reduction assay (U937 and HL60) or by benzidine staining (K562).

[9] = tested on: MT-3/ADR resistant breast carcinoma; experiment: MTT cytotoxicity; format: cell-based; conditions: MDR1, MT-3/ADR resistant breast carcinoma (overexpress MDR-1/p-glycoprotein), 24 hours
Experimental: (§3) The cytotoxicity of Aza-C and 5-Aza-C-5′-elaidic acid was determined in a breast cancer cell line MT-3 and the adriablastin resistant cell line MT-3/ADR. The MT-3/ADR overexpress the MDR-1/p-glycoprotein. […] The cells were incubated for 24 hours. […] Six wells were used per test concentration. The cells were incubated with test compound for 24 hours. […] Similar activity was obtained for Aza-C and 5-Aza-C-5′-elaidic acid in the MT-3 breast carcinoma cell line, but in the MT-3/ADR resistant cell line the activity of Aza-C was lost. […] This may be of importance in the treatment of resistant cancer.

[10] = tested on: breast carcinoma cell line MT-3; experiment: MTT cytotoxicity; format: cell-based; conditions: MT-3 breast carcinoma, 24 hours
Experimental: as §3

[11] = tested on: Hela cervix carcinoma cells; experiment: MTT cytotoxicity with or without nucleoside transport inhibitor dipyridamole; format: cell-based; conditions: for IC50: Homo sapiens, HeLa, 72 h, MTT
Experimental: Dipyridamole was used as an inhibitor of the equilibrative nucleoside transporters hENT1 and hENT2. […] The cells were pre-incubated for 24 hours. Dipyridamole (10 μM) was added to the cells 30 minutes prior to the addition of the test compounds. […] Six wells were used per test concentration. The cells were incubated with test compound for 72 hours.

[12] = tested on: NFκB; experiment: LPS stimulated NFκB luciferase reporter activity in U937 cells; format: cell-based, human; conditions: 10 nM, LPS 1 μg/ml, 1, 3 or 6 hours, compared to DMSO treated control
Experimental: NFκB-luciferase reporter genes were used to determine the influence of Aza-C and 5-Aza-C-5′-elaidic acid on NFκB-induced luciferase activity in a human monocytic cell line U937, stably transfected with a luciferase reporter containing three NFκB-binding sites. The induction of NFκB was performed using lipopolysaccharide (LPS) at 1 μg/ml for 30 minutes prior to the addition of Aza-C or 5-Aza-C-5′-elaidic acid in the concentrations 10 nM to the medium. The cells were cultured in RPMI-1640 medium including 10% fetal bovine serum. Before stimulation with LPS the cells were transferred to medium containing only 2% fetal bovine serum. Luciferase activity was measured by imaging in an IVIS imaging System 100 (Xenogen Corp., USA) after 1, 3 or 6 hours. The LPS stimulation increased with time over the 6 hours followed in the DMSO treated control cells. […] Generally, a positive stimulation of NFκB as observed for azacytidine is not positive, and it is positive that the LPS stimulation is not further increased by 5′Aza-C-5′-elaidic acid.

[13] = clinical plasma samples; cited from earlier work

Structure (SMILES): Nc1ncn([C@@H]2O[C@H](CO)[C@@H](O)[C@H]2O)c(=O)n1 [5-AzaC, 5-azacytidine, reference compound]
- IC50 ([1]; 5637, 24 hour treatment): 24.6 µM
- IC50 ([1]; 5637, 48 hour treatment): 6.72 µM
- IC50 ([1]; 5637, 72 hour treatment): 5.21 µM
- IC50 ([2]; DU145, 24 hour treatment): 20.9 µM
- IC50 ([2]; DU145, 48 hour treatment): 7.11 µM
- IC50 ([2]; DU145, 72 hour treatment): 7.2 µM
- IC50 ([3]; HL60, 24 hour treatment): 7.28 µM
- IC50 ([3]; HL60, 48 hour treatment): 4.92 µM
- IC50 ([3]; HL60, 72 hour treatment): 4.71 µM
- IC50 ([4]; 24 hour treatment): 9.5 µM
- IC50 ([4]; 48 hour treatment): 5.32 µM
- IC50 ([4]; 72 hour treatment): 4.77 µM
- IC50 ([5]; K562, 24 hour treatment): 8.27 µM
- IC50 ([5]; K562, 48 hour treatment): 15.5 µM
- IC50 ([5]; K562, 72 hour treatment): 5.83 µM
- IC50 ([6]; MCF-7, 24 hour treatment): > 160 µM
- IC50 ([6]; MCF-7, 48 hour treatment): 93.7 µM
- IC50 ([6]; MCF-7, 72 hour treatment): 53 µM
- IC50 ([7]; U937, 24 hour treatment): 1.63 µM
- IC50 ([7]; U937, 48 hour treatment): 2.37 µM
- IC50 ([7]; U937, 72 hour treatment): 4.77 µM
- differentiation induction [8]: did not induce significant differentiation
- IC50 [9]: > 100 µM
- IC50 [10]: 12.6 ± 2.35 µM
- activity reduced by addition of dipyridamole ([11]; Hela, with vs without dipyridamole): 3 fold
- IC50 ([11]; Hela with dipyridamole (10 μM)): 12.8 µM
- IC50 ([11]; without dipyridamole): 4.32 µM
- LPS stimulated NFκB luciferase activity [12]: further increased the LPS induced NFκB activation
- average terminal half-life [13]: 1.50 ± 2.30 h
